In article PMC11861696, “The First K^+-Channel Blocker Described from Tityus fasciolatus Venom: The Purification, Molecular Cloning, and Functional Characterization of α-KTx4.9 (Tf5)” (Toxins, 2025):
Positions of bridges follow the written chain, without caps; N, C: chain ends. Residues, ends and D or L forms follow the SMILES beside them. No end group written: not given here.

Key:
Kv1.2 [1] = molecular target: T1, Kv1.2 (Homo sapiens, UniProt P16389); assay: whole-cell patch-clamp, K+ current of Kv1.2 in HEK293T; type: cell-based
T1 construct: expressed in transfected cells; host or cells: HEK293T
T1 sequence (P16389 whole entry): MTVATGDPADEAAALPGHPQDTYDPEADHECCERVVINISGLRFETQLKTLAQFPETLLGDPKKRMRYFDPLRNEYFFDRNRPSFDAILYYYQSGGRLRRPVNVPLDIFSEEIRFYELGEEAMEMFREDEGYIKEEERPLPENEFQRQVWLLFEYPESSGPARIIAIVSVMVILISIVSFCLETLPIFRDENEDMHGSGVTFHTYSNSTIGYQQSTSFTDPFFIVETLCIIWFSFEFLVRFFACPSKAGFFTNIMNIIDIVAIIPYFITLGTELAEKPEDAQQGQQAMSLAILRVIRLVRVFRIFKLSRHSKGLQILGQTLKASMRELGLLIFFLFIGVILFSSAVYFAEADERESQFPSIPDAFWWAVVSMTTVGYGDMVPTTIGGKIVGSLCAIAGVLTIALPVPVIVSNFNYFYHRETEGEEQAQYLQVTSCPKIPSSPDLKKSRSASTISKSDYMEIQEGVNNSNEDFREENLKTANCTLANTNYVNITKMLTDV
Description: (§1) Human Embrionary kidney HEK293T cells were grown in Dulbeccos’s Modified Eagle’s Medium (Sigma-Aldrich, St. Louis, MO, USA) supplemented with 10% fetal calf serum (GIBCO-ThermoFischer, Waltham, MA, USA) and 1% Antibiotic-Antimycotic® (GIBCO-ThermoFischer, Waltham, MA, USA). HEK293T cells were transfected with 1 μg of pcDNA3-Kv1.1, pcDNA3-Kv1.2, or pcDNA3-Kv1.4 and 0.1 μg of EGFP (Clontech Laboratories, Palo Alto, CA, USA) using Lipofectamine 3000 (ThermoFischer, Waltham, MA, USA). L929 cells expressing the Kv1.3 channel were grown in Dulbeccos’s Modified Eagle’s Medium (Sigma-Aldrich) supplemented with 10% fetal calf serum and 100 units/mL of penicillin and 10 µg/mL of streptomycin. Cells were grown in an incubator with a moist atmosphere and 5% CO2, at a constant temperature of 37 °C.
(§2) Potassium macrocurrents (IKs) were measured in whole-cell mode using a HEKA EPC 10 USB amplifier and controlled by PATCHMASTER software version 2x92 (HEKA Elektronik, Lambrecht, Germany). Experiments were performed at a room temperature of 23 °C. […]
(§3) The pipette (internal) solution contained (mM) KCl 140, MgCl2 2, CaCl2 1, EGTA 10, and HEPES 10, with a pH of 7.3 corrected with KOH and an experimental osmolarity of 337 mOsmol. […] The solutions’ osmolarity was measured with a K-7400S semi-micro osmometer (Knauer Berlin, Germany). […]

Kv1.3 [2] = molecular target: T2, Kv1.3 (Mus musculus, UniProt P16390); assay: whole-cell patch-clamp, K+ current of Kv1.3 in L929; type: cell-based
T2 construct: expressed in transfected cells; host or cells: L929
T2 sequence (P16390 whole entry): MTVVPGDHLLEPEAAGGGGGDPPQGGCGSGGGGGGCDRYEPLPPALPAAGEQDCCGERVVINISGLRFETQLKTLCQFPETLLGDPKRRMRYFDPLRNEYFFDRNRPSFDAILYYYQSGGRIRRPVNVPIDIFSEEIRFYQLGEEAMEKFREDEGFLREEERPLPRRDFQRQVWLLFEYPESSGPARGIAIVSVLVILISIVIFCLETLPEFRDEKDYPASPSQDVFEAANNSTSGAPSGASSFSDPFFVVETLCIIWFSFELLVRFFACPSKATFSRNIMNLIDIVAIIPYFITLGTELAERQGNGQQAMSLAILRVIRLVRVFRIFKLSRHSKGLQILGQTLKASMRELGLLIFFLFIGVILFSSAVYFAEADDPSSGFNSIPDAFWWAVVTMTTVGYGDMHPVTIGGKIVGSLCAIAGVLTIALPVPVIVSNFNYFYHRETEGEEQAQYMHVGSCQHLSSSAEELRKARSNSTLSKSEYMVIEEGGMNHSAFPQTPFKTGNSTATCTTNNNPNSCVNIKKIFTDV
Description: as §1, §2, §3

Kv1.3 [3] = molecular target: T2, Kv1.3; conditions: cited from earlier work
A549 carcinoma cell = system: A549 carcinoma cell; set-up: method as in PMID 21087602; conditions: cited from earlier work
Kv1.2 [4] = molecular target: T1, Kv1.2; conditions: cited from earlier work

Compound | inhibition at 0.5 µM (Kv1.2 [1]; HEK-293T, 500 nM Tf5, HEK293T transfected with pcDNA3-Kv1.2, whole-cell, stimulated at 30 mV over 200 ms from -80 mV, 23 °C, n = 9) | IC50 (Kv1.2 [1]; dose–response curve, Figure 5E, n ≥5 for each concentration, read-out: Log IC50 Kv1.2 (converted)) | inhibition at 0.5 µM (Kv1.3 [2]; 500 nM Tf5, L929 cells expressing Kv1.3, whole-cell, stimulated at 30 mV over 200 ms from -80 mV, 23 °C, n = 7) | IC50 (Kv1.3 [2]; dose–response curve, Figure 5F, n ≥5 for each concentration, read-out: Log IC50 Kv1.3 (converted)) | block of Kv1.3 (Kv1.3 [3]) | viability of A549 carcinoma cell cultures (A549 carcinoma cell) | block of Kv1.2 (Kv1.2 [4])
CC[C@H](C)[C@@H]1NC(=O)[C@H](C)NC(=O)[C@H](CCC(=O)O)NC(=O)[C@H](CCCCN)NC(=O)[C@@H]2CSSC[C@@H](C(=O)N[C@@H](Cc3ccc(O)cc3)C(=O)N3CCC[C@H]3C(=O)O)NC(=O)[C@H](CCCCN)NC(=O)[C@@H]3CSSC[C@H](NC(=O)[C@H](CCC(=O)O)NC(=O)[C@@H]4CCCN4C(=O)[C@H](CO)NC(=O)CNC(=O)[C@H](CCCNC(=N)N)NC(=O)[C@@H](NC(=O)[C@H](CCCNC(=N)N)NC(=O)[C@H](C)NC(=O)[C@H](CC(N)=O)NC(=O)[C@@H](NC(=O)[C@H](Cc4ccccc4)NC(=O)[C@@H](N)C(C)C)[C@@H](C)CC)CSSC[C@H](NC(=O)[C@H](CCCCN)NC(=O)CNC(=O)[C@H](C)NC(=O)[C@H](CO)NC(=O)[C@H](CCCCN)NC(=O)CNC1=O)C(=O)N[C@@H](CCSC)C(=O)N[C@@H](CC(N)=O)C(=O)NCC(=O)N[C@@H](CCCCN)C(=O)N3)C(=O)N[C@@H](CC(C)C)C(=O)N1CCC[C@H]1C(=O)N[C@@H](CCCCN)C(=O)N2 [Tf5] (H-VFINARCRGSPECLPKCKEAIGKSAGKCMNGKCKCYP-OH; disulfide 7-28, 13-33, 17-35) | 90.2 ± 3.78% | 15.5 nM | 81.8 ± 4.29% | 116 nM |  |  | 
MgTx: isolated from the scorpion Centruroides margaritatus, Kv1.2 and Kv1.3 blocker (TIINVKCTSPKQCLPPCKAQFGQSAGAKCMNGKCKCYPH; ends and bridges not checked; cysteine pairing not given here; UniProt P40755 1-39, looked up) |  |  |  |  | Kv1.2 and Kv1.3 blocker | reduce the viability | Kv1.2 and Kv1.3 blocker
